Laboratory results taken from patent US20240166681A1, “3'3' CYCLIC DINUCLEOTIDES CONTAINING ISONUCLEOTIDIC UNITS” (INSTITUTE OF ORGANIC CHEMISTRY AND BIOCHEMISTRY AS CR, V. …, priority 2021, published 2024).

Tests used:
AQ STING (G230A-R293Q) = target: T1, AQ STING (G230A-R293Q) (Homo sapiens, UniProt Q86WV6, G230A/H232R/R293Q); test: Differential scanning fluorimetry with AQ STING; format: binding; settings: thermal shift, truncated human AQ STING 0.1 mg/ml, 150 μM CDN; for ΔTm at 150 µM: read-out: DSF ΔTm AQ STING
T1 construct: truncated human WT STING or AQ STING (amino acid residues 140-343); 8xHis (N, cleaved yes); SUMO (N, cleaved yes); made in house; host or cells: E. coli Rosetta-gami B (DE3)
Source text: (§1) Both WT and AQ human STING (G230A-R293Q) cDNA were amplified by the use of PCR (Phusion® High-Fidelity DNA Polymerase, cat. #M0530S, NEB, Ipswich, USA) using oligonucleotides hSTING140-BamH-For ([…]) (SEQ ID NO:5) and hSTING379-Not-Rev3 ([…]) (SEQ ID NO:6) from pUNO1-hSTING-WT (cat. #puno1-hstingwt, InvivoGen, San Diego, USA) and pUNO1-hSTING-HAQ plasmids (punol-hsting-haq, InvivoGen, San Diego, USA). Purified PCR products were cleaved with restriction enzymes BamHI (cat. #R0136S, NEB, Ipswich, USA) and Notl (cat. #R0189S, NEB, Ipswich, USA) and cloned into the pSUMO vector linearized with the identical enzymes. Plasmid pSUMO was created by introducing 8-His-SUMO sequence between Ndel and BamHI sites of pHis-parallel2 plasmid (Clontech, Moutain View, USA). pSUMO-STING WT or pSUMO-STING AQ plasmids thus encoded truncated human WT STING or AQ STING (amino acid residues 140-343) with N-terminal 8xHis and SUMO tag.
(§2) The recombinant WT STING and AQ STING proteins were overexpressed in Rosetta-gami B (DE3) competent cells (cat. #71136-3, Merck Millipore, Billerica, USA). Bacterial pellets were re-suspended in ice-cold lysis buffer containing 50 mmol·l^−1 TrisCl (cat. #T1503, Sigma Aldrich, Czech Republic) pH 8.0, 300 mmol·l^−1 NaCl, 3 mmol·l^−1 β-mercaptoethanol (cat. #M6250, Sigma Aldrich, Czech Republic), 10% glycerol (cat. #G5516, Sigma Aldrich, Czech Republic) and 20 mmol·l^−1 imidazole (cat. #15513, Sigma Aldrich, Czech Republic) using Dounce homogenizer. DNase I (cat. #D5025, Sigma Aldrich, Czech Republic) and RNase A (cat. #R6513, Sigma Aldrich, Czech Republic) were added (final concentration 50 μg/ml) together with MgCl2 (final concentration 5 mmol·l^−1) to the homogenate and bacteria were lysed using French Press G-M™ High-Pressure Cell Press Homogenizer (1500 psi, 3 cycles). Lysate was spun 30,000 g for 20 minutes and supernatant was gently stirred with Ni-NTA resin (cat. #745400.25 Macherey-Nagel, Duren, Germany) for 30 minutes. The resin was poured into a chromatography column, washed with 50 ml buffer A (50 mmol·l^−1 TrisCl (pH 8.0), 800 mmol·l^−1 NaCl, 3 mmol·l^−1 (3-mercaptol; 10% glycerol; 20 mmol·l^−1 imidazole) and 8-His-SUMO tagged STING proteins were eluted with 15 ml buffer A containing 300 mmol·l^−1 imidazole. The eluted proteins were cleaved with recombinant SUMO protease (80 μg/ml of protein solution, cat. #12588018, ThermoFisher, Waltham, USA). The proteins were further purified by size exclusion chromatography using HiLoad 16/60 Superdex 75 (cat. #28989333, GE Healthcare Bio-Sciences, Pittsburgh, USA) in 50 mmol·l^−1 Tris Cl buffer pH 7.4 containing 150 mmol·l^−1 NaCl, and 10% glycerol. Proteins were concentrated with Amicon® Ultra-15 10 K device (cat. #UFC901008, Merck Millipore, Billerica, USA) and flash frozen in liquid N2.
(§3) WT and AQ allelic forms of STING protein were diluted to the final concentration 0.1 mg/ml in 100 mmol·l^−1 TrisCl buffer pH 7.4 containing, 150 mmol·l^−1 NaCl, 1:500 SYPRO Orange (cat. #S6650, ThermoFisher, Waltham, USA) and 150 μM CDN or water. 20 μL solutions of the reaction mixtures were pipetted in triplicates into 96 well optical reaction plates and thermal denaturation of samples were performed on real time PCR cycler (LightCycler® 480 Instrument II—Roche, Basel, Switzerland). The first derivative of the thermal denaturation curves was performed to calculate denaturing temperatures of STING—CDN complexes and STING apoproteins. The thermal shift for each CDN was calculated by subtracting the average denaturing temperature of STING apoprotein from the average denaturing temperature of STING CDN complex.

WT STING = WT STING (Homo sapiens, UniProt Q86WV6, H232R); test: Differential scanning fluorimetry with WT STING; format: binding; design: truncated human WT STING or AQ STING (amino acid residues 140-343); 8xHis (N, cleaved yes); SUMO (N, cleaved yes); made in house; host or cells: E. coli Rosetta-gami B (DE3); settings: thermal shift, truncated human WT STING 0.1 mg/ml, 150 μM CDN; for ΔTm at 150 µM: read-out: DSF ΔTm WT STING
Source text: as §1, §2, §3

WT STING, sequence (Q86WV6 140-343 H232R): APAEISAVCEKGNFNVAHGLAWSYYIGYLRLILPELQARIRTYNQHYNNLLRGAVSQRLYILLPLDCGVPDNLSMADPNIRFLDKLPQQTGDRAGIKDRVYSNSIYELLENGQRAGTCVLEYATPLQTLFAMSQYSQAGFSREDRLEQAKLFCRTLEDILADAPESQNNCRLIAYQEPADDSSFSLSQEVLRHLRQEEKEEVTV
T1 sequence (Q86WV6 140-343 G230A/H232R/R293Q): as the sequence (Q86WV6 140-343 H232R) above, with G91A, R154Q counted along it

Row | SMILES | ΔTm at 150 µM (AQ STING (G230A-R293Q)) [°C] | ΔTm at 150 µM (WT STING) [°C] | DSF ΔTm AQ STING (AQ STING (G230A-R293Q)) [°C] | DSF ΔTm WT STING (WT STING) [°C]
1 | Nc1nc2c(ncn2[C@@H]2O[C@@H]3COP(=O)(O)O[C@H]4[C@H](n5cnc6c(N)ncnc65)CO[C@@H]4COP(=O)(O)O[C@H]3[C@H]2F)c(=O)[nH]1 [Compound 24, (1S,6R,8R,9R,10R,15R,18R)-8-(2-amino-6-oxo-6,9-dihydro-1H-purin-9-yl)-18-(6-amino-9H-purin-9-yl)-9-fluoro-3,12-dihydroxy-2,4,7,11,13,16-hexaoxa-3λ^5,12λ^5-diphosphatricyclo[13.3.0.0^6,10]octadecane-3,12-dione] | 16.9 | 8.5 | – | –
2 | Nc1ncnc2c1ncn2[C@@H]1CO[C@@H]2COP(=O)(O)O[C@H]3[C@@H](F)[C@H](n4cnc5c(N)ncnc54)O[C@@H]3COP(=O)(O)O[C@@H]12 [Compound 28, (1S,6R,8R,9R,10R,15R,18R)-8,18-bis(6-amino-9H-purin-9-yl)-9-fluoro-3,12-dihydroxy-2,4,7,11,13,16-hexaoxa-3λ^5,12λ^5-diphosphatricyclo[13.3.0.0^6,10]octadecane-3,12-dione] | 13.3 | 5.6 | – | –
3 | Nc1nc2c(ncn2[C@@H]2CO[C@@H]3COP(=O)(O)O[C@H]4[C@@H](F)[C@H](n5cnc6c(N)ncnc65)O[C@@H]4COP(=O)(O)O[C@@H]23)c(=O)[nH]1 [Compound 51, (1S,6R,8R,9R,10R,15R,18R)-18-(2-amino-6-oxo-6,9-dihydro-1H-purin-9-yl)-8-(6-amino-9H-purin-9-yl)-9-fluoro-3,12-dihydroxy-2,4,7,11,13,16-hexaoxa-3λ^5,12λ^5-diphosphatricyclo[13.3.0.0^6,10]octadecane-3,12-dione] | 15.8 | 6.8 | – | –
4 | Nc1nc2c(ncn2[C@@H]2CO[C@@H]3COP(=O)(O)O[C@H]4[C@H](n5cnc6c(N)ncnc65)CO[C@@H]4COP(=O)(O)O[C@@H]23)c(=O)[nH]1 [Compound 52, (1S,6R,9R,10S,15R,18R)-9-(2-amino-6-oxo-6,9-dihydro-1H-purin-9-yl)-18-(6-amino-9H-purin-9-yl)-3,12-dihydroxy-2,4,7,11,13,16-hexaoxa-3λ^5,12λ^5-diphosphatricyclo[13.3.0.0^6,10]octadecane-3,12-dione] | 10.7 | 2.4 | – | –

Next, values leading:

Row | ΔTm at 150 µM (AQ STING (G230A-R293Q)) [°C] | ΔTm at 150 µM (WT STING) [°C] | DSF ΔTm AQ STING (AQ STING (G230A-R293Q)) [°C] | DSF ΔTm WT STING (WT STING) [°C] | SMILES
5 | 9.2 | 1.6 | – | – | Nc1ncnc2c1ncn2[C@@H]1CC[C@@H]2COP(=O)(O)O[C@H]3[C@@H](F)[C@H](n4cnc5c(N)ncnc54)O[C@@H]3COP(=O)(O)O[C@H]21 [Compound 34, (1R,6R,8R,9R,10R,15R,18R)-8,18-bis(6-amino-9H-purin-9-yl)-9-fluoro-3,12-dihydroxy-2,4,7,11,13-pentaoxa-3λ^5,12λ^5-diphosphatricyclo[13.3.0.0^6,10]octadecane-3,12-dione]
6 | 9.3 | 1.8 | – | – | Nc1ncnc2c1ncn2[C@@H]1CO[C@@H]2COP(=O)(O)O[C@H]3C[C@H](n4cnc5c(N)ncnc54)O[C@@H]3COP(=O)(O)O[C@@H]12 [Compound 50, (1S,6R,8R,10S,15R,18R)-8,18-bis(6-amino-9H-purin-9-yl)-3,12-dihydroxy-2,4,7,11,13,16-hexaoxa-3λ^5,12λ^5-diphosphatricyclo[13.3.0.0^6,10]octadecane-3,12-dione]
7 | 11.5 | 2.9 | – | – | Nc1nc2c(ncn2[C@@H]2CO[C@@H]3COP(=O)(O)O[C@H]4C[C@H](n5cnc6c(N)ncnc65)O[C@@H]4COP(=O)(O)O[C@@H]23)c(=O)[nH]1 [Compound 53, (1S,6R,8R,10S,15R,18R)-18-(2-amino-6-oxo-6,9-dihydro-1H-purin-9-yl)-8-(6-amino-9H-purin-9-yl)-3,12-dihydroxy-2,4,7,11,13,16-hexaoxa-3λ^5,12λ^5-diphosphatricyclo[13.3.0.0^6,10]octadecane-3,12-dione]
8 | 17.2 | 8.5 | – | – | Nc1ncnc2c1ncn2[C@@H]1CO[C@@H]2COP(=O)(S)O[C@H]3[C@@H](F)[C@H](n4cnc5c(N)ncnc54)O[C@@H]3COP(=O)(S)O[C@@H]12 (stereo partly drawn) [Compound 54, (1S,6R,8R,9R,10R,15R,18R)-8,18-bis(6-amino-9H-purin-9-yl)-9-fluoro-3,12-disulfanyl-2,4,7,11,13,16-hexaoxa-3λ^5,12λ^5-diphosphatricyclo[13.3.0.0^6,10]octadecane-3,12-dione]
9 | – | – | 20.0 | 11.0 | Nc1ncnc2c1ncn2[C@@H]1CO[C@@H]2COP(=O)(S)O[C@H]3[C@@H](F)[C@H](n4cnc5c(N)ncnc54)O[C@@H]3COP(=O)(S)O[C@@H]12 (stereo partly drawn) [Compound 55, (1S,6R,8R,9R,10R,15R,18R)-8,18-bis(6-amino-9H-purin-9-yl)-9-fluoro-3,12-disulfanyl-2,4,7,11,13,16-hexaoxa-3λ^5,12λ^5-diphosphatricyclo[13.3.0.0^6,10]octadecane-3,12-dione]
